From PubChem BioAssay AID2060887 (Molecular Pharmacology Branch, DTP, NCI, 2025)

Tested on: 782815-120-R-J1-PDC complex spheroid viability
Test: Anticancer human tumor 782815-120-R-J1-PDC patient-derived colon adenocarcinoma cell line growth inhibition [RAS]
Details: for IC50: curve of first compound; for viability, T/C: stronger effect = lower value
Summary of the method: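 Multi-cell-type spheroids: tumor cells plus HUVEC endothelial cells and mesenchymal stem cells. RAS-pathway inhibitors were combined with targeted agents, each dosed in half-log steps down from clinical Cmax, or from 10 microM when Cmax was unknown.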

[1] = second compound 0.000949 µM, first compound 0.0316 µM
[2] = second compound 0.000949 µM, first compound 0.1 µM
[3] = second compound 0.000949 µM, first compound 0.316 µM
[4] = second compound 0.000949 µM, first compound 1 µM
[5] = second compound 0.000949 µM, first compound 3.16 µM
[6] = second compound 0.000949 µM, first compound 10 µM
[7] = second compound 0.003 µM, first compound 0.0316 µM
[8] = second compound 0.003 µM, first compound 0.1 µM
[9] = second compound 0.003 µM, first compound 0.316 µM
[10] = second compound 0.003 µM, first compound 1 µM
[11] = second compound 0.003 µM, first compound 3.16 µM
[12] = second compound 0.003 µM, first compound 10 µM
[13] = second compound 0.00949 µM, first compound 0.0316 µM
[14] = second compound 0.00949 µM, first compound 0.1 µM
[15] = second compound 0.00949 µM, first compound 0.316 µM
[16] = second compound 0.00949 µM, first compound 1 µM
[17] = second compound 0.00949 µM, first compound 3.16 µM
[18] = second compound 0.00949 µM, first compound 10 µM
[19] = second compound 0.03 µM, first compound 0.0316 µM
[20] = second compound 0.03 µM, first compound 0.1 µM
[21] = second compound 0.03 µM, first compound 0.316 µM
[22] = second compound 0.03 µM, first compound 1 µM
[23] = second compound 0.03 µM, first compound 3.16 µM
[24] = second compound 0.03 µM, first compound 10 µM
[25] = second compound 0.0949 µM, first compound 0.0316 µM
[26] = second compound 0.0949 µM, first compound 0.1 µM
[27] = second compound 0.0949 µM, first compound 0.316 µM
[28] = second compound 0.0949 µM, first compound 1 µM
[29] = second compound 0.0949 µM, first compound 3.16 µM
[30] = second compound 0.0949 µM, first compound 10 µM
[31] = second compound 0.3 µM, first compound 0.0316 µM
[32] = second compound 0.3 µM, first compound 0.1 µM
[33] = second compound 0.3 µM, first compound 0.316 µM
[34] = second compound 0.3 µM, first compound 1 µM
[35] = second compound 0.3 µM, first compound 3.16 µM
[36] = second compound 0.3 µM, first compound 10 µM
[37] = second compound 0.000949 µM, first compound 0.00316 µM
[38] = second compound 0.000949 µM, first compound 0.01 µM
[39] = second compound 0.003 µM, first compound 0.00316 µM
[40] = second compound 0.003 µM, first compound 0.01 µM
[41] = second compound 0.00949 µM, first compound 0.00316 µM
[42] = second compound 0.00949 µM, first compound 0.01 µM
[43] = second compound 0.03 µM, first compound 0.00316 µM
[44] = second compound 0.03 µM, first compound 0.01 µM
[45] = second compound 0.0949 µM, first compound 0.00316 µM
[46] = second compound 0.0949 µM, first compound 0.01 µM
[47] = second compound 0.3 µM, first compound 0.00316 µM
[48] = second compound 0.3 µM, first compound 0.01 µM
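Note: spheroids exposed to compounds for 7 days before reading.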
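Throughout, for viability, T/C: 100% = DMSO vehicle control viability.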

`CC(C)NCC(C(=O)N1CCN(c2ncnc3c2C(C)CC3O)CC1)c1ccc(Cl)cc1` (stereo not drawn) + CCn1c(-c2cccnc2C(C)OC)c2c3cc(ccc31)N1CCOC(CC(NC(=O)C(C(C)C)N(C)C(=O)C3(F)CCN(C(=O)C#CC(C)(C)N(C)C)CC3)C(=O)N3CCCC(N3)C(=O)OCC(C)(C)C2)C1 was tested, and the IC50 (second compound 0.000949 µM) was over 10000 nM, the IC50 (second compound 0.003 µM) was over 10000 nM and the IC50 (second compound 0.00949 µM) was over 10000 nM. It also gave an IC50 (second compound 0.03 µM) of over 10000 nM, an IC50 (second compound 0.0949 µM) of over 10000 nM and an IC50 (second compound 0.3 µM) of over 10000 nM. The viability, T/C [1] was 90.6%, the viability, T/C [2] was 90.6% and the viability, T/C [3] was 104%. For the same compound, the viability, T/C [4] was 88.8%, the viability, T/C [5] was 97.8% and the viability, T/C [6] was 104%. It also gave a viability, T/C [7] of 86.3%, a viability, T/C [8] of 98.3% and a viability, T/C [9] of 97%. For the same compound, the viability, T/C [10] was 91.5%, the viability, T/C [11] was 98.2% and the viability, T/C [12] was 97.5%. The viability, T/C [13] was 95.4%, the viability, T/C [14] was 95.9% and the viability, T/C [15] was 99.7%. The viability, T/C [16] was 93.3%, the viability, T/C [17] was 104% and the viability, T/C [18] was 104%. For the same compound, the viability, T/C [19] was 105%, the viability, T/C [20] was 90.6% and the viability, T/C [21] was 91.9%. It also gave a viability, T/C [22] of 94.9%, a viability, T/C [23] of 97.2% and a viability, T/C [24] of 96.7%. The viability, T/C [25] was 97.1%, the viability, T/C [26] was 97.2% and the viability, T/C [27] was 91.9%. It also gave a viability, T/C [28] of 95.1%, a viability, T/C [29] of 107% and a viability, T/C [30] of 101%. It also gave a viability, T/C [31] of 93.4%, a viability, T/C [32] of 93.8% and a viability, T/C [33] of 90.4%. It also gave a viability, T/C [34] of 93.2%, a viability, T/C [35] of 97.2% and a viability, T/C [36] of 92.4%.
`CC(C)n1nc(-c2ccc3oc(N)nc3c2)c2c(N)ncnc21` + CCn1c(-c2cccnc2C(C)OC)c2c3cc(ccc31)N1CCOC(CC(NC(=O)C(C(C)C)N(C)C(=O)C3(F)CCN(C(=O)C#CC(C)(C)N(C)C)CC3)C(=O)N3CCCC(N3)C(=O)OCC(C)(C)C2)C1 showed an IC50 (second compound 0.000949 µM) of over 100 nM, an IC50 (second compound 0.003 µM) of over 100 nM and an IC50 (second compound 0.00949 µM) of over 100 nM. The IC50 (second compound 0.03 µM) was over 100 nM, the IC50 (second compound 0.0949 µM) was over 100 nM and the IC50 (second compound 0.3 µM) was over 100 nM. It also gave a viability, T/C (second compound 0.000949 µM, first compound 0.000316 µM) of 88.2%, a viability, T/C (second compound 0.000949 µM, first compound 0.001 µM) of 90.7% and a viability, T/C [37] of 93%. It also gave a viability, T/C [38] of 88.2%, a viability, T/C [1] of 88.1% and a viability, T/C [2] of 76.3%. For the same compound, the viability, T/C (second compound 0.003 µM, first compound 0.000316 µM) was 91.5%, the viability, T/C (second compound 0.003 µM, first compound 0.001 µM) was 107% and the viability, T/C [39] was 91.7%. It also gave a viability, T/C [40] of 86.4%, a viability, T/C [7] of 84.8% and a viability, T/C [8] of 78.2%. It also gave a viability, T/C (second compound 0.00949 µM, first compound 0.000316 µM) of 94.8%, a viability, T/C (second compound 0.00949 µM, first compound 0.001 µM) of 102% and a viability, T/C [41] of 87.3%. The viability, T/C [42] was 94.3%, the viability, T/C [13] was 87.3% and the viability, T/C [14] was 70.7%. The viability, T/C (second compound 0.03 µM, first compound 0.000316 µM) was 87%, the viability, T/C (second compound 0.03 µM, first compound 0.001 µM) was 99.9% and the viability, T/C [43] was 94.1%. It also gave a viability, T/C [44] of 93.6%, a viability, T/C [19] of 106% and a viability, T/C [20] of 70.5%. The viability, T/C (second compound 0.0949 µM, first compound 0.000316 µM) was 87.7%, the viability, T/C (second compound 0.0949 µM, first compound 0.001 µM) was 95.2% and the viability, T/C [45] was 99.6%. For the same compound, the viability, T/C [46] was 83.7%, the viability, T/C [25] was 87.8% and the viability, T/C [26] was 78.8%. For the same compound, the viability, T/C (second compound 0.3 µM, first compound 0.000316 µM) was 90.9%, the viability, T/C (second compound 0.3 µM, first compound 0.001 µM) was 92.1% and the viability, T/C [47] was 86.1%. The viability, T/C [48] was 90.2%, the viability, T/C [31] was 90.6% and the viability, T/C [32] was 69.2%.
With `CC(Nc1ccc2c(c1)OCCn1cc(N3C(=O)OCC3C(F)F)nc1-2)C(N)=O` (stereo not drawn) + CCn1c(-c2cccnc2C(C)OC)c2c3cc(ccc31)N1CCOC(CC(NC(=O)C(C(C)C)N(C)C(=O)C3(F)CCN(C(=O)C#CC(C)(C)N(C)C)CC3)C(=O)N3CCCC(N3)C(=O)OCC(C)(C)C2)C1 the IC50 (second compound 0.000949 µM) was over 10000 nM, the IC50 (second compound 0.003 µM) was over 10000 nM and the IC50 (second compound 0.00949 µM) was over 10000 nM. For the same compound, the IC50 (second compound 0.03 µM) was over 10000 nM, the IC50 (second compound 0.0949 µM) was over 10000 nM and the IC50 (second compound 0.3 µM) was over 10000 nM. It also gave a viability, T/C [1] of 93.3%, a viability, T/C [2] of 93.9% and a viability, T/C [3] of 82.2%. It also gave a viability, T/C [4] of 95.2%, a viability, T/C [5] of 99.2% and a viability, T/C [6] of 81.4%. For the same compound, the viability, T/C [7] was 93.6%, the viability, T/C [8] was 94.5% and the viability, T/C [9] was 93%. The viability, T/C [10] was 90.8%, the viability, T/C [11] was 93.5% and the viability, T/C [12] was 97.5%. For the same compound, the viability, T/C [13] was 93.4%, the viability, T/C [14] was 101% and the viability, T/C [15] was 91.1%. The viability, T/C [16] was 95.4%, the viability, T/C [17] was 93.8% and the viability, T/C [18] was 90.8%. The viability, T/C [19] was 90.7%, the viability, T/C [20] was 97% and the viability, T/C [21] was 90.4%. For the same compound, the viability, T/C [22] was 89.9%, the viability, T/C [23] was 102% and the viability, T/C [24] was 93.2%. For the same compound, the viability, T/C [25] was 85.9%, the viability, T/C [26] was 95.3% and the viability, T/C [27] was 81%. The viability, T/C [28] was 98.9%, the viability, T/C [29] was 106% and the viability, T/C [30] was 94.8%. The viability, T/C [31] was 95.1%, the viability, T/C [32] was 92% and the viability, T/C [33] was 90%. For the same compound, the viability, T/C [34] was 82.8%, the viability, T/C [35] was 94.6% and the viability, T/C [36] was 87.3%.
Compound `O=C(c1ccc(F)c(F)c1Nc1ccc(I)cc1F)N1CC(O)([C@@H]2CCCCN2)C1` + CCn1c(-c2cccnc2C(C)OC)c2c3cc(ccc31)N1CCOC(CC(NC(=O)C(C(C)C)N(C)C(=O)C3(F)CCN(C(=O)C#CC(C)(C)N(C)C)CC3)C(=O)N3CCCC(N3)C(=O)OCC(C)(C)C2)C1 has an IC50 (second compound 0.000949 µM) of 47.7 nM, an IC50 (second compound 0.003 µM) of 53.4 nM and an IC50 (second compound 0.00949 µM) of 45.5 nM. The IC50 (second compound 0.03 µM) was 51.9 nM, the IC50 (second compound 0.0949 µM) was 46.1 nM and the IC50 (second compound 0.3 µM) was 40.6 nM. The viability, T/C [37] was 91.2%, the viability, T/C [38] was 74.1% and the viability, T/C [1] was 60%. It also gave a viability, T/C [2] of 35.2%, a viability, T/C [3] of 17% and a viability, T/C [4] of 1.9%. It also gave a viability, T/C [39] of 85.9%, a viability, T/C [40] of 73.5% and a viability, T/C [7] of 60.6%. It also gave a viability, T/C [8] of 39.1%, a viability, T/C [9] of 16.4% and a viability, T/C [10] of 2.12%. The viability, T/C [41] was 88%, the viability, T/C [42] was 74.6% and the viability, T/C [13] was 57.7%. It also gave a viability, T/C [14] of 34.5%, a viability, T/C [15] of 15.9% and a viability, T/C [16] of 1.1%. The viability, T/C [43] was 79.2%, the viability, T/C [44] was 86.5% and the viability, T/C [19] was 55.3%. It also gave a viability, T/C [20] of 36.6%, a viability, T/C [21] of 14.8% and a viability, T/C [22] of 1.32%. The viability, T/C [45] was 78.3%, the viability, T/C [46] was 73.4% and the viability, T/C [25] was 55.4%. The viability, T/C [26] was 36.5%, the viability, T/C [27] was 16.3% and the viability, T/C [28] was 3.86%. It also gave a viability, T/C [47] of 81.3%, a viability, T/C [48] of 66.4% and a viability, T/C [31] of 56.3%. The viability, T/C [32] was 35.5%, the viability, T/C [33] was 14.2% and the viability, T/C [34] was 0.95%.
